Read-outs that look alike come from different tables or passages of the source.
Experiments:
[1] = system: Nrf2 (Keap1-NRF2 nuclear translocation); test: U2OS translocation assay (PathHunter U2OS Keap1-NRF2 Nuclear Translocation Cell Line); type: cell-based
In short: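 Enzyme-fragment complementation read-out: luminescence after 60 min of detection reagent at room temperature, following a 3 h, 37° C compound exposure of engineered U2OS Keap1-NRF2 translocation cells (1% FBS medium). Signal scaled from 1% DMSO basal to 10 μM andrographolide maximum.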

Keap1 (A321-C624) (h) = target: T1, Keap1 (A321-C624) (h) (Homo sapiens, UniProt Q14145); test: Surface Plasmon Resonance binding assay to Kelch domain of KEAP1; details: Biacore T200, 25° C., immobilized His-Thromb-KEAP1(A321-C624), single cycle kinetics, KD=kd/ka from 1:1 fit; read-out: Keap1 (A321-C624) (h) direct/SPR (KD)
T1 construct: His-Thromb-KEAP1(A321-C624) acquired from Novalix (batch PU-P01) was immobilized covalently by amine coupling; His tag (N); thrombin cleavage site (Thromb) (N); purchased Novalix batch PU-P01
T1 sequence (Q14145 321-624): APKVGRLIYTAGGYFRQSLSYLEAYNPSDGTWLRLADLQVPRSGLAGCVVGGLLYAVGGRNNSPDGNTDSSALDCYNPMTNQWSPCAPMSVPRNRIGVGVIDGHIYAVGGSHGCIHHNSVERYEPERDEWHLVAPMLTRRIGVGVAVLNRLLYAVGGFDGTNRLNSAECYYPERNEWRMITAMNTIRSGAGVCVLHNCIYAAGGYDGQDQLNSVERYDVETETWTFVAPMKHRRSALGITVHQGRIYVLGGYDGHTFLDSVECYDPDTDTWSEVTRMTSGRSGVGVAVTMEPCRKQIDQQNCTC
Protocol: EXAMPLE 85: SURFACE PLASMON RESONANCE
Binding assay to Kelch domain of KEAP1 was performed by Surface Plasmon Resonance (SPR) on a Biacore T200 (GE Healthcare) at 25° C. using CM5 chip. His-Thromb-KEAP1(A321-C624) acquired from Novalix (batch PU-P01) was immobilized covalently by amine coupling using standard wizard protocol, at a concentration of 20 μg/mL in sodium acetate pH 5.5. The ligand was captured until 1250 RU was reached. Amine blank is used as the reference flow cell. Binding of analyte to the ligand was monitored in real time with associations of 180 seconds and a dissociation of 720 seconds. Association (ka) and dissociation (kd) rates were fitted with a simple 1:1 kinetic interaction model using Biacore T200 Evaluation Software (GE Healthcare). The equilibrium constant (KD=kd/ka) was calculated from these fitted parameters. […] The Biacore binding assay was performed with a flowrate of 50 μL/min using a running buffer of 10 mM HEPES (pH 7.4), 150 mM NaCl, 3 mM EDTA, 1 mM TCEP, 0.05% P20,5% DMSO. Double subtraction was used by subtracting both reference flow cell and previous blank cycle (with running buffer). Solvent correction was applied to correct DMSO bulk effect.

[2] = read-out: CELLULAR U2OS EC50, U2OS Keap1-NRF2 nuclear translocation cells, 3 h incubation, luminescence, normalized between 1% DMSO and 10 μM andrographolide
[3] = Homo sapiens, U2OS, 3 h, read-out: CELLULAR U2OS EC50 (nM), U2OS Keap1-NRF2 nuclear translocation cells, 3 h incubation, luminescence, normalized between 1% DMSO and 10 μM andrographolide

SMILES	Kd (Keap1 (A321-C624) (h))	EC50 [1, 2]	EC50 [1, 3]
Cc1ccc2cc1CN1Cc3cc(cc(F)c3OS1(=O)=O)OCCCCn1nnc3c(C)c(ccc31)C2CC(=O)O (single isomer, unassigned) [Example 17b, [24-Fluoro-4,31-dimethyl-27,27-dioxo-21,26-dioxa-27λ^6-thia-1,14,15,16-tetraazahexacyclo[20.5.3.1^3,70.1^9,130.0^12,160.0^25,29]dotriaconta-3(32),4,6,9(31),10,12,14,22,24,29-decaen-8-yl]acetic acid]	5.55 nM	89 nM	–
COCCC1CCOc2ccc3c(c2)CN([C@H](C)c2cc(ccc2C)[C@H](CC(=O)O)c2ccc4c(nnn4C1)c2C)S(=O)(=O)O3 (single isomer, unassigned) [Example 24a]	1.1 nM	7.28 nM	–
COCCC1CCOc2ccc3c(c2)CN([C@H](C)c2cc(ccc2C)[C@H](CC(=O)O)c2ccc4c(nnn4C1)c2C)S(=O)(=O)O3 (single isomer, unassigned) [Example 24b]	1.23 nM	2.45 nM	–
COCCC1CCOc2ccc3c(c2)CN([C@H](C)c2cc(ccc2C)[C@@H](CC(=O)O)c2ccc4c(nnn4C1)c2C)S(=O)(=O)O3 (single isomer, unassigned) [Example 24c]	5 nM	–	60 nM
COCCC1CCOc2ccc3c(c2)CN([C@H](C)c2cc(ccc2C)[C@@H](CC(=O)O)c2ccc4c(nnn4C1)c2C)S(=O)(=O)O3 (single isomer, unassigned) [Example 24d]	4.32 nM	36.4 nM	–
COc1cc2c3cc1OCCCCn1nnc4c(C)c(ccc41)C(CC(=O)O)c1ccc(C)c(c1)CN(C3)S(=O)(=O)O2 (single isomer, unassigned) [Example 25a, [23-Methoxy-4,31-dimethyl-27,27-dioxo-21,26-dioxa-27λ^6-thia-1,14,15,16-tetraazahexacyclo[20.5.3.1^3,70.1^9,130.0^12,160.0^25,29]dotriaconta-3(32),4,6,9(31),10,12,14,22,24,29-decaen-8-yl]acetic acid]	0.562 nM	14 nM	–
COc1cc2c3cc1OCCCCn1nnc4c(C)c(ccc41)C(CC(=O)O)c1ccc(C)c(c1)CN(C3)S(=O)(=O)O2 (single isomer, unassigned) [Example 25b, [23-Methoxy-4,31-dimethyl-27,27-dioxo-21,26-dioxa-27λ^6-thia-1,14,15,16-tetraazahexacyclo[20.5.3.1^3,70.1^9,130.0^12,160.0^25,29]dotriaconta-3(32),4,6,9(31),10,12,14,22,24,29-decaen-8-yl]acetic acid]	1.16 nM	56.8 nM	–
Cc1ccc2cc1CN1Cc3cc(c(F)cc3OS1(=O)=O)OCCCCn1nnc3c(C)c(ccc31)C2CC(=O)O (single isomer, unassigned) [Example 32a, [23-Fluoro-4,31-dimethyl-27,27-dioxo-21,26-dioxa-27λ^6-thia-1,14,15,16-tetraazahexacyclo[20.5.3.1^3,70.1^9,130.0^12,160.0^25,29]dotriaconta-3(32),4,6,9(31),10,12,14,22,24,29-decaen-8-yl]acetic acid]	0.645 nM	20 nM	–
Cc1ccc2cc1CN1Cc3cc(c(F)cc3OS1(=O)=O)OCCCCn1nnc3c(C)c(ccc31)C2CC(=O)O (single isomer, unassigned) [Example 32b, [23-Fluoro-4,31-dimethyl-27,27-dioxo-21,26-dioxa-27λ^6-thia-1,14,15,16-tetraazahexacyclo[20.5.3.1^3,70.1^9,130.0^12,160.0^25,29]dotriaconta-3(32),4,6,9(31),10,12,14,22,24,29-decaen-8-yl]acetic acid]	2.02 nM	150 nM	–

Now from value to compound, other results behind:

Kd (Keap1 (A321-C624) (h))	SMILES	EC50 [1, 2]	EC50 [1, 3]
3.67 nM	Cc1c(F)cc2cc1CN1Cc3cc(ccc3OS1(=O)=O)OCCCCn1nnc3c(C)c(ccc31)C2CC(=O)O (single isomer, unassigned) [Example 18a, [5-Fluoro-4,31-dimethyl-27,27-dioxo-21,26-dioxa-27λ^6-thia-1,14,15,16-tetraazahexacyclo[20.5.3.1^3,70.1^9,130.0^12,160.0^25,29]dotriaconta-3(32),4,6,9(31),10,12,14,22,24,29-decaen-8-yl]acetic acid]	1140 nM	–
1.01 nM	Cc1c(F)cc2cc1CN1Cc3cc(ccc3OS1(=O)=O)OCCCCn1nnc3c(C)c(ccc31)C2CC(=O)O (single isomer, unassigned) [Example 18b, [5-Fluoro-4,31-dimethyl-27,27-dioxo-21,26-dioxa-27λ^6-thia-1,14,15,16-tetraazahexacyclo[20.5.3.1^3,70.1^9,130.0^12,160.0^25,29]dotriaconta-3(32),4,6,9(31),10,12,14,22,24,29-decaen-8-yl]acetic acid]	91.3 nM	–
0.631 nM	Cc1ccc2cc1CN1Cc3cc(c(Cl)cc3OS1(=O)=O)OCCCCn1nnc3c(C)c(ccc31)C2CC(=O)O (single isomer, unassigned) [Example 22a, [23-Chloro-4,31-dimethyl-27,27-dioxo-21,26-dioxa-27λ^6-thia-1,14,15,16-tetraazahexacyclo[20.5.3.1^3,70.1^9,130.0^12,160.0^25,29]dotriaconta-3(32),4,6,9(31),10,12,14,22,24,29-decaen-8-yl]acetic acid]	17.2 nM	–
2.11 nM	Cc1ccc2cc1CN1Cc3cc(c(Cl)cc3OS1(=O)=O)OCCCCn1nnc3c(C)c(ccc31)C2CC(=O)O (single isomer, unassigned) [Example 22b, [23-Chloro-4,31-dimethyl-27,27-dioxo-21,26-dioxa-27λ^6-thia-1,14,15,16-tetraazahexacyclo[20.5.3.1^3,70.1^9,130.0^12,160.0^25,29]dotriaconta-3(32),4,6,9(31),10,12,14,22,24,29-decaen-8-yl]acetic acid]	111 nM	–
4.55 nM	Cc1c(Cl)cc2cc1CN1Cc3cc(ccc3OS1(=O)=O)OCCCCn1nnc3c(C)c(ccc31)C2CC(=O)O (single isomer, unassigned) [Example 33a, [5-Chloro-4,31-dimethyl-27,27-dioxo-21,26-dioxa-27λ^6-thia-1,14,15,16-tetraazahexacyclo[20.5.3.1^3,70.1^9,130.0^12,160.0^25,29]dotriaconta-3(32),4,6,9(31),10,12,14,22,24,29-decaen-8-yl]acetic acid]	94.5 nM	–
9.29 nM	Cc1c(Cl)cc2cc1CN1Cc3cc(ccc3OS1(=O)=O)OCCCCn1nnc3c(C)c(ccc31)C2CC(=O)O (single isomer, unassigned) [Example 33b, [5-Chloro-4,31-dimethyl-27,27-dioxo-21,26-dioxa-27λ^6-thia-1,14,15,16-tetraazahexacyclo[20.5.3.1^3,70.1^9,130.0^12,160.0^25,29]dotriaconta-3(32),4,6,9(31),10,12,14,22,24,29-decaen-8-yl]acetic acid]	894 nM	–
33600 nM	COc1cc2cc(c1OC)CN1Cc3cc(ccc3OS1(=O)=O)OCCCCn1nnc3c(C)c(ccc31)C2CC(=O)O (single isomer, unassigned) [Example 35a, [4,5-Dimethoxy-31-methyl-27,27-dioxo-21,26-dioxa-27λ^6-thia-1,14,15,16-tetraazahexacyclo[20.5.3.1^3,70.1^9,130.0^12,160.0^25,29]dotriaconta-3(32),4,6,9(31),10,12,14,22,24,29-decaen-8-yl]acetic acid]	–	> 3160 nM
7450 nM	COc1cc2cc(c1OC)CN1Cc3cc(ccc3OS1(=O)=O)OCCCCn1nnc3c(C)c(ccc31)C2CC(=O)O (single isomer, unassigned) [Example 35b, [4,5-Dimethoxy-31-methyl-27,27-dioxo-21,26-dioxa-27λ^6-thia-1,14,15,16-tetraazahexacyclo[20.5.3.1^3,70.1^9,130.0^12,160.0^25,29]dotriaconta-3(32),4,6,9(31),10,12,14,22,24,29-decaen-8-yl]acetic acid]	> 3160 nM	–
9.02 nM	Cc1cc2cc(c1Cl)CN1Cc3cc(ccc3OS1(=O)=O)OCCCCn1nnc3c(C)c(ccc31)C2CC(=O)O (single isomer, unassigned) [Example 36a, [4-Chloro-5,31-dimethyl-27,27-dioxo-21,26-dioxa-27λ^6-thia-1,14,15,16-tetraazahexacyclo[20.5.3.1^3,70.1^9,130.0^12,160.0^25,29]dotriaconta-3(32),4,6,9(31),10,12,14,22,24,29-decaen-8-yl]acetic acid]	126 nM	–
